Source: US20260231940A1, “METHOD FOR ATTRACTING COCKROACHES, COCKROACH ATTRACTANT, AND METHOD FOR CONTROLLING COCKROACHES” (SUMITOMO CHEMICAL COMPANY, LIMITED, priority 2023, published 2026)

What was measured:
Type in all cases: in vivo
Blattella germanica [1] = assay: Test Example 4: choice test, methoprene-applied filter paper uneven sheet; settings: 1 g methoprene per 1 m^2, four hours after release, total of eight repetitions
Source text: (§1) FIG. 3 is a planar view schematically illustrating the test space used in Test Examples 1 to 5. […] Depending on the test system, a container 2 containing solid feed for MF mouse rats as bait and a container 3 containing water were placed between these two uneven sheets 1.
(§2) A sheet formed from a filter paper (ADVANTEC qualitative filter paper No. 2, manufactured by Toyo Roshi Kaisha, Ltd.) wherein the sheet was a triangular wave shape in its cross-sectional shape as shown in FIG. 2(b) was used. Specifically, an uneven sheet (a corrugated sheet) the depth of the concave portion and the height of the convex portion of which were each 17 mm, and where the concave portions and the convex portions were formed in a corrugated shape so that the angle at the vertices of the concave portions might be 60° was prepared.
(§3) As the uneven sheets 1 placed in the test space 20, all those being 10 cm×16 cm in size were used, and they were placed so that the ridge lines of the corrugations of the uneven sheets 1 were parallel to the lengthwise direction of the test space 20. […]
(§4) In the test space 20 prepared as described above, Blattella germanica (30 individuals in total) were released, and four hours later, the number of individuals settled in each uneven sheet 1 and the number of individuals present in the test space 20 other than the uneven sheets 1 were counted. […]

Blattella germanica [2] = assay: Test Example 3: choice test, bistrifluron-applied filter paper uneven sheet; settings: 1 g bistrifluron per 1 m^2, four hours after release, total of four repetitions
Source text: as §1, §2, §3, §4

Blattella germanica [3] = assay: Test Example 5: choice test, hydroprene-applied filter paper uneven sheet; settings: 500 mg hydroprene per 1 m^2, 24 hours after release, total of eight repetitions
Source text: as §1, §2, §3
In the test space 20 prepared as described above, Blattella germanica (30 individuals in total) were released, and 24 hours later, the number of individuals settled in each uneven sheet 1 and the number of individuals present in the test space 20 other than the uneven sheets 1 were counted. […]

Blattella germanica [4] = assay: Test Example 2: choice test, pyriproxyfen amount series on uneven sheet; settings: four hours after release, total of four repetitions; for Number of individuals Uneven sheet (chemical applied): 120 released
Protocol: (§5) Specifically, an uneven sheet (a corrugated sheet) the depth of the concave portion and the height of the convex portion of which were each 10 mm, and where the concave portions and the convex portions were formed in a corrugated shape so that the angle at the vertices of the concave portion might be 53° was prepared. The uneven sheet was used in Test Example 1 and Test Example 2.
as §1
As the uneven sheets 1 placed in the test space 20, all those being 10 cm×16 cm in size were used, and they were placed so that the ridge lines of the corrugations of the uneven sheets 1 were parallel to the lengthwise direction of the test space 20. Additionally, containers 2 and 3 containing feed and water respectively were placed between the facing uneven sheets 1.
In the test space 20 prepared as described above, Blattella germanica (30 individuals in total) were released, and four hours later, the number of individuals settled in each uneven sheet 1 and the number of individuals present in the test space 20 other than the uneven sheets 1 were counted. The above test was conducted in four repetitions.

Cimex lectularius = assay: Test Example 1: choice test, chemical-applied versus blank uneven sheet; settings: 1 g pyriproxyfen per 1 m^2, four days after release, total of two repetitions
Protocol: as §5, §1
(§6) As the uneven sheets 1 placed in the test space 20, all those being 10 cm×10 cm in size were used, and they were placed so that the ridge lines of the corrugations of the uneven sheets 1 were parallel to the lengthwise direction of the test space 20.
(§7) As test insects, Periplaneta americana nymphs, Cimex lectularius, Dermanyssus gallinae, Sitophilus zeamais, and Plodia interpunctella larvae were used. Cimex lectularius and Dermanyssus gallinae were released into each test space 20 where feed and water had not been placed and only corrugated sheets 1 had been placed. Periplaneta americana nymphs were released into test space 20 where containers 2 and 3 containing feed and water respectively placed between the facing uneven sheets 1 as shown in FIG. 3. Sitophilus zeamais and Plodia interpunctella larvae were released into each test space 20 where feed and water had not been placed and brown rice had been placed on uneven sheets 1 as a hiding place for the test insects.
(§8) Four days after releasing the insects, the number of individuals settled in each uneven sheet 1 and the number of individuals present in the test space 20 other than the uneven sheets 1 were counted. The above test was conducted in two repetitions.

[5] = test system: Plodia interpunctella larvae; assay: as above; settings: 1 g pyriproxyfen per 1 m^2, four days after release, total of two repetitions
Protocol: as §5, §1, §6, §7, §8

Dermanyssus gallinae = assay: as above; settings: 1 g pyriproxyfen per 1 m^2, four days after release, total of two repetitions
Protocol: as §5, §1, §6, §7, §8

[6] = test system: Periplaneta americana nymphs; assay: as above
Protocol: as §5, §1, §6, §7, §8

Sitophilus zeamais = assay: as above; settings: 1 g pyriproxyfen per 1 m^2, four days after release, total of two repetitions
Protocol: as §5, §1, §6, §7, §8

[7] = 60 released, brown rice on sheets

`COC(C)(C)CCC[C@H](C)C/C=C/C(C)=C/C(=O)OC(C)C` (racemic) [methoprene] was tested, and the “Number of individuals Uneven sheet (chemical applied)” value (“Number of individuals Uneven sheet” below) (Blattella germanica [1]; 240 released) was 152 and the “Hiding rate (Chemical applied / Blank)” value (Blattella germanica [1]) was 2.92.
In the case of `O=C(NC(=O)c1c(F)cccc1F)Nc1cc(C(F)(F)F)cc(C(F)(F)F)c1Cl` [bistrifluron], the “Number of individuals Uneven sheet” value (Blattella germanica [2]; 120 released) is reported as 71 and the “Hiding rate (Chemical applied / Blank)” value (Blattella germanica [2]) is reported as 2.29.
With `CCOC(=O)/C=C(C)/C=C/CC(C)CCCC(C)C` (centres unmarked) [hydroprene] the “Number of individuals Uneven sheet” value (Blattella germanica [3]; 240 released) was 160 and the “Hiding rate (Chemical applied / Blank)” value (Blattella germanica [3]) was 2.13.
`CC(COc1ccc(Oc2ccccc2)cc1)Oc1ccccn1` (centres unmarked) [pyriproxyfen] was tested, and the “Number of individuals Uneven sheet” value (Blattella germanica [4]; 10 mg/m^2 pyriproxyfen) was 78, the “Hiding rate (Chemical applied / Blank)” value (Blattella germanica [4]; 10 mg/m^2 pyriproxyfen) was 1.95 and the “Number of individuals Uneven sheet” value (Blattella germanica [4]; 100 mg/m^2 pyriproxyfen) was 70. The “Hiding rate (Chemical applied / Blank)” value (Blattella germanica [4]; 100 mg/m^2 pyriproxyfen) was 1.52, the “Number of individuals Uneven sheet” value (Blattella germanica [4]; 500 mg/m^2 pyriproxyfen) was 98 and the “Hiding rate (Chemical applied / Blank)” value (Blattella germanica [4]; 500 mg/m^2 pyriproxyfen) was 5.44. For the same compound, the “Number of individuals Uneven sheet” value (Blattella germanica [4]; 1000 mg/m^2 pyriproxyfen) was 91, the “Hiding rate (Chemical applied / Blank)” value (Blattella germanica [4]; 1000 mg/m^2 pyriproxyfen) was 3.25 and the “Number of individuals Uneven sheet” value (Blattella germanica [4]; 2000 mg/m^2 pyriproxyfen) was 67. For the same compound, the “Hiding rate (Chemical applied / Blank)” value (Blattella germanica [4]; 2000 mg/m^2 pyriproxyfen) was 1.40, the “Number of individuals Uneven sheet” value (Blattella germanica [4]; 5000 mg/m^2 pyriproxyfen) was 71 and the “Hiding rate (Chemical applied / Blank)” value (Blattella germanica [4]; 5000 mg/m^2 pyriproxyfen) was 1.54. The “Number of individuals Uneven sheet” value (Cimex lectularius; 30 released, no feed or water) was 12, the “Hiding rate (Chemical applied / Blank)” value (Cimex lectularius) was 0.75 and the “Number of individuals Uneven sheet” value [5, 7] was 23. The “Hiding rate (Chemical applied / Blank)” value [5] was 0.62, the “Number of individuals Uneven sheet” value (Dermanyssus gallinae; 59 released, no feed or water) was 17 and the “Hiding rate (Chemical applied / Blank)” value (Dermanyssus gallinae) was 0.94. For the same compound, the “Number of individuals Uneven sheet” value ([6]; Periplaneta americana nymphs, 1 g pyriproxyfen per 1 m^2, four days after release, 60 released, total of two repetitions, feed and water placed) was 39, the “Hiding rate (Chemical applied / Blank)” value ([6]; Periplaneta americana nymphs, 1 g pyriproxyfen per 1 m^2, four days after release, total of two repetitions) was 1.86 and the attracting effect ([6]; conclusion from Table 1: Periplaneta americana nymphs versus the four other test species) was “specific to cockroaches”. The “Number of individuals Uneven sheet” value (Sitophilus zeamais; [7]) was 21 and the “Hiding rate (Chemical applied / Blank)” value (Sitophilus zeamais) was 0.64.
